Measured values reported in publication PMC9127186, “Molecular Basis Underlying Hepatobiliary and Renal Excretion of Phenolic Acids of Salvia miltiorrhiza Roots (Danshen)” (Frontiers in Pharmacology, 2022).

What was measured:
[1] = target: T1, rat Oct3 (Rattus norvegicus, UniProt O88446); assay: Cellular transport assay, HEK-293 cells expressing rat Oct3; conditions: positive substrate 20 μM, 10 min; rat Oct3
T1 sequence (O88446 1-551): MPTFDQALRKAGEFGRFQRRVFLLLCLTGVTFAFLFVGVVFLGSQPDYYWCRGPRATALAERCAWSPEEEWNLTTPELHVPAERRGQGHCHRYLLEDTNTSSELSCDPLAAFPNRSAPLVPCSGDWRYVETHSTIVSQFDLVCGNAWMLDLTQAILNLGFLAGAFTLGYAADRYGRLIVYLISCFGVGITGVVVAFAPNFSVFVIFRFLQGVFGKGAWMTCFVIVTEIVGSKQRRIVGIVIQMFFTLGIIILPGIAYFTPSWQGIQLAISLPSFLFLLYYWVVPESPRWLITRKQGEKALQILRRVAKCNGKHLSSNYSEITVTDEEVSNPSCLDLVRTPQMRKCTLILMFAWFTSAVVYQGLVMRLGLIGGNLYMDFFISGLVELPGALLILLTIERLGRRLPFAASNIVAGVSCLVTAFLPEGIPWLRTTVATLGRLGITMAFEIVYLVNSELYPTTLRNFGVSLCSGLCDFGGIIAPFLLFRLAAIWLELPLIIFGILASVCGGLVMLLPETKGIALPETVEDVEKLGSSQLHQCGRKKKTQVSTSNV

[2] = target: T2, human OCT3 (Homo sapiens, UniProt O75751); assay: Cellular transport assay, HEK-293 cells expressing human OCT3; conditions: positive substrate 20 μM, 10 min; human OCT3
T2 sequence (O75751 1-556): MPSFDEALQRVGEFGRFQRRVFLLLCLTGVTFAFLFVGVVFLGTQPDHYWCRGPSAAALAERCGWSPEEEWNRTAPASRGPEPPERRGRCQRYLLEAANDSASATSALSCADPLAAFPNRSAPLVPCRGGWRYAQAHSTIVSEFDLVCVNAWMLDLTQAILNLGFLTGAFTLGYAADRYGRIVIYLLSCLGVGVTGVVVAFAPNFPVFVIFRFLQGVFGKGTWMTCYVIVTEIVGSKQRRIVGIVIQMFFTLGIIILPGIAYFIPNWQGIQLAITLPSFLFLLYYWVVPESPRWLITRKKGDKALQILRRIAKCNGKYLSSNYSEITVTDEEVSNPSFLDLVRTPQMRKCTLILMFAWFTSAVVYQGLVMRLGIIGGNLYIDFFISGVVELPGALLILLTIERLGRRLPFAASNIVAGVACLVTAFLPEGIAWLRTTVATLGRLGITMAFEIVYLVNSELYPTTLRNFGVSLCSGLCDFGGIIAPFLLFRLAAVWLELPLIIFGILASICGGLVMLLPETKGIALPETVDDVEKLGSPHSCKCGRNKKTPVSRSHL

[3] = target: T3, rat Octn2 (Rattus norvegicus, UniProt O70594); assay: Cellular transport assay, HEK-293 cells expressing rat Octn2; conditions: positive substrate 20 μM, 10 min; rat Octn2
T3 sequence (O70594 1-557): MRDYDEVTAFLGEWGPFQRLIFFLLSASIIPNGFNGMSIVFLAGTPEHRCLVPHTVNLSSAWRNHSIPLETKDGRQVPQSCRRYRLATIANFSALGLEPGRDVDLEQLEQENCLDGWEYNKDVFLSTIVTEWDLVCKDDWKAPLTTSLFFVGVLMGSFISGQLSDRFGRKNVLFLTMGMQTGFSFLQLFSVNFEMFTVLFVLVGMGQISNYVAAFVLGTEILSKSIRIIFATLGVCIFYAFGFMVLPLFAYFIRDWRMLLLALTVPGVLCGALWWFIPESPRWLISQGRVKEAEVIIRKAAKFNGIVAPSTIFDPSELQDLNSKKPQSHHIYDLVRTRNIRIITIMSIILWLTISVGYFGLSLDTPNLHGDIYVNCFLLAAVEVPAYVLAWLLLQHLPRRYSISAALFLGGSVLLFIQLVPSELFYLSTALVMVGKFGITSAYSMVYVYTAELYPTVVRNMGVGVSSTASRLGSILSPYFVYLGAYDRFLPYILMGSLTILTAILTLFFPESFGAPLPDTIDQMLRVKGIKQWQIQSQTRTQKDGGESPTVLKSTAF

## CC[N+](CC)(CC)CC [TEA, tetraethylammonium, reference compound]
[1]
  TransportTC/TransportMC ratio, positive substrate: 3.90 ± 0.88 (TEA)
[2]
  TransportTC/TransportMC ratio, positive substrate: 4.45 ± 0.27 (TEA)
[3]
  TransportTC/TransportMC ratio, positive substrate: 9.85 ± 0.74 (TEA)
